Positions count from the first letter of the chain named.
Columns and labels:
Assay in all cases: α-Gal A activity in lysates of transfected HEK-293 cells ± migalastat (HEK assay)
Format in all cases: cell-based
[1] = target: T1, α-Gal A mutant form G411S (Homo sapiens, UniProt P06280, G411S)
T1 construct: expressed in transfected cells; host or cells: HEK-293
T1 sequence (P06280 32-429 G411S): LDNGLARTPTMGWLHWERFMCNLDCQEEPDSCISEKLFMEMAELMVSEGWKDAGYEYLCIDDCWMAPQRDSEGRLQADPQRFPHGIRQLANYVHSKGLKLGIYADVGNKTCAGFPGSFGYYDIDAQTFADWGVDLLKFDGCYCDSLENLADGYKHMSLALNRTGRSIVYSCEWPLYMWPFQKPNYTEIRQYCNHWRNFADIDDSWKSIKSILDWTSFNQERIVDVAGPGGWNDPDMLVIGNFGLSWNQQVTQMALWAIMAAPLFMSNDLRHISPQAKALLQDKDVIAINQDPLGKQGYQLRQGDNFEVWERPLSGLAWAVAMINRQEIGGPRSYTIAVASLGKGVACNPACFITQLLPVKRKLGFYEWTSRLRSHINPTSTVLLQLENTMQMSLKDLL
Excerpt: (§1) Such mutations or variants are also referred to herein as “HEK assay amenable” mutations or variants.
(§2) The α-Gal A activity is expressed as the nmoles of free 4-MU released per milligram of protein per hour (nmol/mg/hr).

[2] = target: T2, α-Gal A mutant form S276T (Homo sapiens, UniProt P06280, S276T)
T2 construct: expressed in transfected cells; host or cells: HEK-293
T2 sequence (P06280 32-429 S276T): T1 sequence (P06280 32-429 G411S) with S245T, S380G
Excerpt: as §1, §2

[3] = target: T3, α-Gal A mutant form A257T (Homo sapiens, UniProt P06280, A257T)
T3 construct: expressed in transfected cells; host or cells: HEK-293
T3 sequence (P06280 32-429 A257T): T1 sequence (P06280 32-429 G411S) with A226T, S380G
Excerpt: as §1, §2

[4] = target: T4, α-Gal A mutant form A143V (Homo sapiens, UniProt P06280, A143V)
T4 construct: expressed in transfected cells; host or cells: HEK-293
T4 sequence (P06280 32-429 A143V): T1 sequence (P06280 32-429 G411S) with A112V, S380G
Excerpt: as §1, §2

α-Gal A mutant form Y88C = target: T5, α-Gal A mutant form Y88C (Homo sapiens, UniProt P06280, Y88C)
T5 construct: expressed in transfected cells; host or cells: HEK-293
T5 sequence (P06280 32-429 Y88C): T1 sequence (P06280 32-429 G411S) with Y57C, S380G
Excerpt: as §1, §2

[5] = 10 μM migalastat minus baseline
[6] = HEK-293 lysates, 10 μM migalastat 5 days, mean ± SEM

OC[C@H]1NC[C@H](O)[C@@H](O)[C@H]1O [migalastat, (2R,3S,4R,5S)-2-(hydroxymethyl) piperdine-3,4,5-triol]
Absolute increase (% WT) [1, 5]: 22 % WT
Relative increase ([1]; 10 μM migalastat ÷ baseline): 1.58
10 μM migalastat α-Gal A activity [1, 6]: 17543 ± 867 nmol/mg/h
10 μM migalastat α-Gal A activity (% WT) [1, 6]: 61.1 ± 3.2 % WT
Absolute increase (% WT) [2, 5]: 8.3 % WT
Relative increase ([2]; 10 μM migalastat ÷ baseline): 7.5
10 μM migalastat α-Gal A activity [2, 6]: 4104 ± 439 nmol/mg/h
10 μM migalastat α-Gal A activity (% WT) [2, 6]: 9.6 ± 0.9 % WT
Absolute increase (% WT) [3, 5]: 40.6 % WT
Relative increase ([3]; 10 μM migalastat ÷ baseline): 2.56
10 μM migalastat α-Gal A activity [3, 6]: 18990 ± 1196 nmol/mg/h
10 μM migalastat α-Gal A activity (% WT) [3, 6]: 66.2 ± 4.1 % WT
Absolute increase (% WT) [4, 5]: 31.7 % WT
Relative increase ([4]; 10 μM migalastat ÷ baseline): 3.24
10 μM migalastat α-Gal A activity [4, 6]: 13309 ± 921 nmol/mg/h
10 μM migalastat α-Gal A activity (% WT) [4, 6]: 45.5 ± 3.2 % WT
Absolute increase (% WT) (α-Gal A mutant form Y88C; [5]): 9.9 % WT
Relative increase (α-Gal A mutant form Y88C; 10 μM migalastat ÷ baseline): 3.38
10 μM migalastat α-Gal A activity (α-Gal A mutant form Y88C; [6]): 5459 ± 307 nmol/mg/h
10 μM migalastat α-Gal A activity (% WT) (α-Gal A mutant form Y88C; [6]): 14 ± 1.1 % WT
